# Patent US8722717B2, “3-triazolylphenyl-substituted sulphide derivatives as acaricides and insecticides” (Bayer CropScience AG, priority 2009, dated 2014)
# Experiments:
# [1] = tested on: greenhouse red spidermite (Tetranychus urticae); test: Tetranychus test; OP resistant (TETRUR spray treatment), Example 5; type: in vivo; conditions: foliar, 144 h, spray on bean leaf discs, after 6 days, read-out: effect (100% means that all of the mites have been killed); for pest or weed control at 100 g/ha: application rate 100 g/ha; for pest or weed control at 500 g/ha: application rate 500 g/ha
# Description: (§1) Solvents: 78.0 parts by weight of acetone • • 1.5 parts by weight of dimethylformamide Emulsifier: 0.5 part by weight of alkylaryl polyglycol ether An appropriate preparation of active compound is prepared by mixing 1 part by weight of active compound with the stated amounts of solvent and emulsifier and diluting the concentrate with emulsifier-containing water to the desired concentration. Leaf discs of bean (Phaseolus vulgaris) infested by all stages of the greenhouse red spidermite (Tetranychus urticae) are sprayed with a preparation of active compound at the desired concentration. After 6 days, the effect in % is determined. Here, 100% means that all of the mites have been killed; 0% means that no mites have been killed.
# [2] = log P by HPLC/LC-MS on reversed-phase C18, formic acid method [b]; type: physicochemical; conditions: reversed-phase C18 HPLC column; pH 2.7, 0.1% aqueous formic acid and acetonitrile; read-out: logP (HCOOH)
# Description: (§2) The log P values reported in the table above and in the preparation examples were determined in accordance with EEC Directive 79/831 Annex V.A8 by HPLC (High Performance Liquid Chromatography) on reversed-phase columns (C 18), with the following methods: ^[b] The determination is made by LC-MS in the acid range at pH 2.7 with 0.1% aqueous formic acid and acetonitrile (containing 0.1% formic acid) as eluents; linear gradient from 10% acetonitrile to 95% acetonitrile. Calibration took place with unbranched alkan-2-ones (having 3 to 16 carbon atoms) of known log P values (log P values determined from the retention times by linear interpolation between two successive alkanones).
# Boophilus microplus [3] = test: Boophilus microplus test (BOOPMI injection); type: in vivo; conditions: injection into the abdomen, 20 μg/animal, after 7 days
# Description: Solvent: Dimethyl Sulphoxide An appropriate preparation of active compound is prepared by mixing 10 mg of active compound with 0.5 ml of solvent and diluting the concentrate with solvent to the desired concentration. The solution of active compound is injected into the abdomen (Boophilus microplus) and the animals are transferred into dishes and kept in a controlled atmosphere. The activity is assessed on the basis of deposition of fertile eggs. After 7 days, the effect in % is determined. Here, 100% means that none of the ticks has laid fertile eggs.
# [4] = tested on: larvae of the mustard beetle (Phaedon cochleariae); test: Phaedon test (PHAECO spray treatment); type: in vivo; conditions: foliar, spray on Chinese cabbage leaf discs, application rate 500 g/ha, read-out: effect (100% means that all of the beetle larvae have been killed)
# Description: Solvents: 78.0 parts by weight of acetone • • 1.5 parts by weight of dimethylformamide Emulsifier: 0.5 part by weight of alkylaryl polyglycol ether An appropriate preparation of active compound is prepared by mixing 1 part by weight of active compound with the stated amounts of solvent and emulsifier and diluting the concentrate with emulsifier-containing water to the desired concentration. Leaf discs of Chinese cabbage (Brassica pekinensis) are sprayed with a preparation of active compound at the desired concentration and, after they have dried, are populated with larvae of the mustard beetle (Phaedon cochleariae). After the desired time, the effect in % is determined. Here, 100% means that all of the beetle larvae have been killed; 0% means that no beetle larvae have been killed.
# [5] = tested on: green peach aphid (Myzus persicae); test: Myzus test (MYZUPE spray treatment); type: in vivo; conditions: spray on Chinese cabbage leaf discs, application rate 500 g/ha, after 6 days
# Description: as §1, with “Solvent: 78” for “Solvents: 78.0”, “Chinese cabbage (Brassica pekinensis)” for “bean (Phaseolus vulgaris)”, “green peach aphid (Myzus persicae)” for “greenhouse red spidermite (Tetranychus urticae)”, “aphids” for “mites”
# [6] = log P by HPLC on reversed-phase C18, phosphoric acid method [a]; type: physicochemical; conditions: reversed-phase C18 HPLC column; pH 2.3, 0.1% aqueous phosphoric acid and acetonitrile; read-out: logP (H3PO4)
# Description: as §2, with “^[a]” for “^[b]”, “made” for “made by LC-MS”, “2.3” for “2.7”, “phosphoric” for “formic”, “acetonitrile” for “acetonitrile (containing 0.1% formic acid)”
# [7] = tested on: greenhouse red spidermite (Tetranychus urticae); test: Tetranychus test; OP resistant (TETRUR spray treatment), Example 7, comparison with prior art; type: in vivo; conditions: 6 d
# Description: as §1, with “the desired time,” for “6 days,”
# Boophilus microplus [8] = test: Boophilus microplus (dip); type: in vivo; conditions: application rate 100 ppm, after 7 days
# Description: Solvent: Dimethyl Sulphoxide A quantity of 10 mg of active compound is dissolved in 0.5 ml of dimethyl sulphoxide. To prepare a suitable formulation, the active compound solution is diluted with water to the particular desired concentration. This active compound preparation is pipetted into tubes. A quantity of 8-10 ticks is transferred into a further tube with holes. The tube is immersed in the active compound preparation, with all of the ticks being fully wetted. After the liquid has run off, the ticks are transferred to filter discs in plastic dishes and are kept in a conditioned room. The effect is monitored after 7 days on the basis of deposition of fertile eggs. Eggs whose fertility is not externally visible are stored in glass tubes until the larvae hatch, in a controlled-climate box. An activity of 100% means that none of the ticks has laid fertile eggs.
# Meloidogyne incognita = Meloidogyne incognita test (MELGIN); type: in vivo; conditions: application rate 20 ppm, lettuce in sand, after 14 days
# Description: Solvents: 80.0 parts by weight of acetone An appropriate preparation of active compound is prepared by mixing 1 part by weight of active compound with the stated amounts of solvent and emulsifier and diluting the concentrate with water to the desired concentration. Pots are filled with sand, solution of active compound, meloidogyne incognita egg/larvae suspension, and lettuce seeds. The lettuce seeds germinate and the plants develop. On the roots, the galls develop. After 14 days, the nematicidal effect is determined from the gall formation, in %. Here, 100% means that no galls were found; 0% means that the number of galls on the treated plants corresponds to that for the untreated control.
Compound,pest or weed control at 100 g/ha [1] [%],chromatographic logP [2],pest or weed control at 500 g/ha [4] [%],pest or weed control at 500 g/ha [1] [%],also measured
Cc1cc(C)c(-n2cnc(C(F)(F)F)n2)cc1SCC#N [I-A-9],100,3.08,,,
"Cc1cc(C)c(-n2cnc(C(F)(F)F)n2)cc1SCC(F)F [I-A-1, 3-(trifluoromethyl)-1-{2,4-dimethyl-5-[(2,2-difluoroethyl)sulphanyl]phenyl}-1H-1,2,4-triazole]",100,3.74,,,activity (100% means that none of the ticks has laid fertile eggs) (Boophilus microplus [3]): 100%
Cc1cc(Cl)c(-n2cnc(C(F)(F)F)n2)cc1SCC(F)(F)C(F)F [I-A-17],100,4.06,100,,
Cc1cc(F)c(-n2cnc(C(F)(F)F)n2)cc1[S+]([O-])CC(F)(F)C(F)F (stereo not drawn) [I-A-18],100,2.79,100,,
Cc1cc(F)c(-n2cnc(C(F)(F)F)n2)cc1[S+]([O-])CC#N (stereo not drawn) [I-A-15],,1.99,,100,
Cc1cc(Cl)c(-n2cnc(C(F)(F)F)n2)cc1SCC(F)(F)C(F)(F)F [I-A-26],90,4.57,,,
Cc1cc(C)c([S+]([O-])CC(F)(F)C(F)F)cc1-n1cnc(C(F)(F)F)n1 (stereo not drawn) [I-A-5],,,,100,activity (100% means that none of the ticks has laid fertile eggs) (Boophilus microplus [3]): 100%; activity (100% means that all of the aphids have been killed) [5]: 90%; chromatographic logP [6]: 2.88
"Cc1cc(C)c(-n2cnc(C(F)(F)F)n2)cc1SCC(F)(F)F [VI -297, reference compound]",,,,,% effect after application ([7]; 4 g/ha): 0%; % effect after application ([7]; 20 g/ha): 70%
Cc1cc(F)c(-n2cnc(C(F)(F)F)n2)cc1SCC(F)(F)C(F)(F)F [I-A-22],100,4.4,,,
Cc1cc(Cl)c(-n2cnc(C(F)(F)F)n2)cc1[S+]([O-])CC(F)(F)C(F)(F)F (stereo not drawn) [I-A-14],,3.4,100,100,
Cc1cc(C)c(-n2cnc(C(F)(F)F)n2)cc1SCCC(F)(F)F [I-A-20],100,4.32,,,activity (100% means that all of the aphids have been killed) [5]: 100%
Cc1cc(C)c(-n2cnc(C(F)(F)F)n2)cc1SCC(F)(F)C(F)(F)F [I-A-4],100,,,100,activity (100% means that none of the ticks has laid fertile eggs) (Boophilus microplus [8]): 90%; activity (100% means that none of the ticks has laid fertile eggs) (Boophilus microplus [3]): 100%; chromatographic logP [6]: 4.49
"Cc1ccc(-n2cnc(C(F)(F)F)n2)c(C)c1 [IV-A-1, 3-(Trifluoromethyl)-1-(2,4-dimethylphenyl)-1H-1,2,4-triazole]",,3.19,,,
Cc1cc(Cl)c(-n2cnc(C(F)(F)F)n2)cc1[S+]([O-])CC(F)(F)C(F)F (stereo not drawn) [I-A-23],,3.01,100,100,
"Cc1cc(C)c([S+]([O-])CC(F)F)cc1-n1cnc(C(F)(F)F)n1 (stereo not drawn) [I-A-2, 3-(trifluoromethyl)-1-{2,4-dimethyl-5-[(2,2-difluoroethyl)sulphinyl]phenyl}-1H-1,2,4-triazole]",100,2.41,,,activity (100% means that none of the ticks has laid fertile eggs) (Boophilus microplus [3]): 100%
Cc1cc(Cl)c(-n2cnc(C(F)(F)F)n2)cc1SCC(F)F [I-A-16],100,3.75,100,,
Cc1cc(C)c(-n2cnc(C(F)(F)F)n2)cc1SCC(F)(F)C(F)F [I-A-3],,,,100,activity (100% means that none of the ticks has laid fertile eggs) (Boophilus microplus [8]): 90%; activity (100% means that none of the ticks has laid fertile eggs) (Boophilus microplus [3]): 100%; chromatographic logP [6]: 3.98
Cc1cc(F)c(-n2cnc(C(F)(F)F)n2)cc1SCC(F)(F)C(F)F [I-A-24],100,3.87,100,,
Cc1cc(F)c(-n2cnc(C(F)(F)F)n2)cc1[S+]([O-])CC(F)F (stereo not drawn) [I-A-19],100,2.33,100,,
Cc1cc(Cl)c(-n2cnc(C(F)(F)F)n2)cc1[S+]([O-])CC(F)F (stereo not drawn) [I-A-21],,2.54,,100,
Cc1cc(C)c([S+]([O-])CC#N)cc1-n1cnc(C(F)(F)F)n1 (stereo not drawn) [I-A-8],,2.07,,100,
Cc1cc(C)c([S+]([O-])CCC(F)(F)F)cc1-n1cnc(C(F)(F)F)n1 (stereo not drawn) [I-A-7],90,2.86,,,
Cc1cc(F)c(-n2cnc(C(F)(F)F)n2)cc1SCC(F)F [I-A-6],100,3.57,100,,
Cc1cc(F)c(-n2cnc(C(F)(F)F)n2)cc1[S+]([O-])CC(F)(F)C(F)(F)F (stereo not drawn) [I-A-25],100,3.22,100,,
Cc1cc(Cl)c(-n2cnc(C(F)(F)F)n2)cc1SCC#N [I-A-12],,3.12,,100,
Cc1cc(F)c(-n2cnc(C(F)(F)F)n2)cc1SCC#N [I-A-13],,2.93,,100,
Cc1cc(C)c([S+]([O-])CC(F)(F)C(F)(F)F)cc1-n1cnc(C(F)(F)F)n1 (stereo not drawn) [I-A-10],,,,100,chromatographic logP [6]: 3.29
Cc1cc(Cl)c(-n2cnc(C(F)(F)F)n2)cc1[S+]([O-])CC#N (stereo not drawn) [I-A-11],,2.17,,100,nematicidal effect from gall formation (100% means that no galls were found) (Meloidogyne incognita): 90%
